From patent US20240353769A1, “ELECTROPHOTOGRAPHIC PHOTORECEPTOR, COATING LIQUID FOR FORMING ELECTROPHOTOGRAPHIC PHOTORECEPTOR PROTECTIVE LAYER, COMPOUND, ELECTROPHOTOGRAPHIC PHOTORECEPTOR CARTRIDGE, AND IMAGE FORMATION DEVICE” (MITSUBISHI CHEMICAL CORPORATION, priority 2021, published 2024)

Assay: Evaluation of solubility in organic solvent (visual)
Format: physicochemical
Set-up: key: A (good): The compound dissolved completely at room temperature.; B (poor): Undissolved compound was observed at room temperature
Conditions: eight parts by mass in 100 parts by mass mixed solvent (19 mass % THF, 38 mass % TL, 43 mass % 2-PrOH), 25° C., stirred 10 minutes
Method: To 100 parts by mass of a mixed solvent of tetrahydrofuran (appropriately abbreviated to as THF below), toluene (appropriately abbreviated to as TL below) and 2-propanol (appropriately abbreviated to as 2-PrOH below) (19 mass % THF, 38 mass % TL and 43 mass % 2-PrOH, 25° C.), eight parts by mass of the compound 1 or 2 or the comparative compound 1 was added, and without heating or cooling, the mixtures were stirred with a rotor for 10 minutes. Then, the dissolution states were observed visually, and the solubility was evaluated by the following criteria.

Row | Compound | Solubility
1 | CCC(C)(C)C1=C/C(=C2/C=C(C(C)(C)CC)C(=O)c3ccccc32)c2ccccc2C1=O [Comparative Compound 1, reference compound] | B
2 | C=CC(=O)OCCOC(=O)CCC(=O)Oc1cccc(C(C)C2=C/C(=C3/C=C(C(C)c4cccc(OC(=O)CCC(=O)OCCOC(=O)C=C)c4)C(=O)c4ccccc43)c3ccccc3C2=O)c1 (stereo not drawn) [Compound 1] | A
3 | C=C(C)C(=O)OCC(COC(=O)C(=C)C)OC(=O)CCC(=O)Oc1cccc(C(C)C2=C/C(=C3/C=C(C(C)c4cccc(OC(=O)CCC(=O)OC(COC(=O)C(=C)C)COC(=O)C(=C)C)c4)C(=O)c4ccccc43)c3ccccc3C2=O)c1 (stereo not drawn) [Compound 2] | A
